Values quoted from earlier work, collected in patent US10137085B2, “Nanoemulsion for transdermal delivery and method of making the same” (Nano and Advanced Materials Institute Limited, priority 2014, dated 2018).
Where a name gives a salt, the structure may show the parent alone. Read-outs that look alike come from different tables or passages of the source.

Columns and labels:
[1] = o/w microemulsion with oleyl alcohol and NMP, compared to aqueous solution

## COc1ccc([C@@H]2Sc3ccccc3N(CCN(C)C)C(=O)[C@@H]2OC(C)=O)cc1 [diltiazem HCl]
[1]
  enhancement of drug permeability: 520 fold

## C[C@]12CC[C@@H]3c4ccc(O)cc4CC[C@H]3[C@@H]1CC[C@@H]2O [estradiol]
[1]
  enhancement of drug permeability: 58 fold

## CN(Cc1cnc2nc(N)nc(N)c2n1)c1ccc(C(=O)N[C@@H](CCC(=O)O)C(=O)O)cc1 [methotrexate]
solid-in-oil nanodispersion vs control aqueous solution
  increase of permeation efficiency through skin: two- to three
solid-in-oil nanodispersion with urea as enhancer vs control aqueous solution, after 24 h
  increase of permeation efficiency through skin: approximately 8.8 fold
